In brackets after ≈: the same amount, converted by molar mass. Read-outs that look alike come from different tables or passages of the source. Bridge positions count the residues as written; N and C are the ends. Square brackets hold non-standard residues; d marks the D form. Ends that are not written are not given here. Peptide text beside a SMILES is read from it.
Legend:
[1] = tested on: pseudo-EBOV (VSV-eGP)
[2] = tested on: Staphylococcus epidermidis 1457
[3] = tested on: Klebsiella pneumoniae E406-17
[4] = tested on: Escherichia coli E416-7
[5] = tested on: HaCaT cells (human keratinocytes)
[6] = tested on: S. aureus USA300
[7] = tested on: BALB/c mouse red blood cells
[8] = tested on: Acinetobacter baumannii B28-16
[9] = tested on: Pseudomonas aeruginosa #2
[10] = tested on: human red blood cells; conditions: red cells of human
[11] = tested on: SARS-CoV-2 WI; conditions: 2 h
[12] = tested on: Vero cells (ATCC, CCL-81)
[13] = tested on: pseudo-EBOV (VSV-eGP); format: cell-based, Ebola virus
[14] = tested on: all the tested antibiotic-resistant pathogens (e.g., MRSA, Escherichia coli, Pseudomonas aeruginosa, and Klebsiella pneumoniae)
[15] = tested on: Calu-3 (ATCC, HTB-55) cells; conditions: 48 h

Compound	Minimum inhibitory concentration, Staphylococcus epidermidis 1457 [2]	Minimum inhibitory concentration, Klebsiella pneumoniae E406-17 [3]	Minimum inhibitory concentration, Escherichia coli E416-7 [4]	Minimum inhibitory concentration, S. aureus USA300 [6]	Minimum inhibitory concentration, Acinetobacter baumannii B28-16 [8]	Minimum inhibitory concentration, Pseudomonas aeruginosa #2 [9]	hRBC HC50 (50% hemolytic concentration) [10]	inhibition of SARS-CoV-2 ([11]; 5 µM)	inhibition of SARS-CoV-2 ([11]; 10 µM)	inhibition of VSV-eGP, treated immediately after infection [13]	other results
RWLRGLLSGLLRRLLSGLLL-NH2 [DFTavP1]	8 to 16 µM	16 to 32 µM	16 µM	8 to 16 µM	8 µM	32 µM					higher inhibition than LL-37 ([1]; 2 h, 2.5 µM): 18%; HaCaT TC50 (peptide concentration that killed 50% of human keratinocytes) [5]: 25 µM; hemolysis of murine red blood cells (in words) [7]: highly hemolytic; mRBC HC50 ([7]; red cells of mouse): <10 µM
RWLRGLLSGLLRRLLS-NH2 [DFTavP2]	2 µM	4 µM	4 µM	4 µM	2 µM	8 µM	below 12.5 µM				decrease in the viral inhibition compared to DFTavP1 ([1]; 2 h, 5 µM): 33%
RWVRGVVSGVVRRVVS-NH2 [DFTavP4]			16 µM	>64 µM							
CC(C)C[C@@H](NC(=O)CN)C(=O)N[C@H](CCCNC(=N)N)C(=O)N[C@@H]1CSSC[C@H](C(=O)N[C@H](CC(C)C)C(=O)N[C@H](CC(C)C)C(=O)N[C@H](CCCNC(=N)N)C(=O)O)NC(=O)[C@@H](CCCNC(=N)N)NC(=O)CNC(=O)[C@@H](CC(C)C)NC(=O)[C@@H](CCCNC(=N)N)NC(=O)[C@@H](CCCNC(=N)N)NC(=O)[C@@H](CC(C)C)NC(=O)[C@@H](CC(C)C)NC(=O)[C@@H](CCCNC(=N)N)NC(=O)CNC(=O)[C@@H](CC(C)C)NC(=O)[C@@H](CCCNC(=N)N)NC1=O [DDIP1] (H-G[dL][dR][dC][dR][dL]G[dR][dL][dL][dR][dR][dL]G[dR][dC][dL][dL][dR]-OH; disulfide 4-16; N-terminus assumed)	4 to 8 µM	4 µM (≈ 9.12 µg/mL)	2 µM (≈ 4.56 µg/mL)	4 µM (≈ 9.12 µg/mL)	2 to 4 µM	4 µM (≈ 9.12 µg/mL)		42%	~ 55%	~ 15%	inhibition against the virus (VSV-eGP) ([1]; 2 h, 2.5 µM): 7%; inhibition against the virus (VSV-eGP) ([1]; 2 h, 5 µM): 14%; Vero Cell TC50 [12]: 13.0 µM; MIC values against all the tested antibiotic-resistant pathogens [14]: 2 to 8 µM
CC[C@H](C)[C@H](NC(=O)[C@H](CCCCN)NC(=O)[C@H](CCC(=O)O)NC(=O)[C@H](CCCCN)NC(=O)[C@H](CO)NC(=O)[C@H](CCCCN)NC(=O)[C@H](CCCNC(=N)N)NC(=O)[C@H](Cc1ccccc1)NC(=O)[C@H](Cc1ccccc1)NC(=O)[C@H](CC(=O)O)NC(=O)CNC(=O)[C@H](CC(C)C)NC(=O)[C@@H](N)CC(C)C)C(=O)NCC(=O)N[C@@H](CCCCN)C(=O)N[C@@H](CCC(=O)O)C(=O)N[C@@H](Cc1ccccc1)C(=O)N[C@@H](CCCCN)C(=O)N[C@@H](CCCNC(=N)N)C(=O)N[C@H](C(=O)N[C@H](C(=O)N[C@@H](CCC(N)=O)C(=O)N[C@@H](CCCNC(=N)N)C(=O)N[C@H](C(=O)N[C@@H](CCCCN)C(=O)N[C@@H](CC(=O)O)C(=O)N[C@@H](Cc1ccccc1)C(=O)N[C@@H](CC(C)C)C(=O)N[C@@H](CCCNC(=N)N)C(=O)N[C@@H](CC(N)=O)C(=O)N[C@@H](CC(C)C)C(=O)N[C@H](C(=O)N1CCC[C@H]1C(=O)N[C@@H](CCCNC(=N)N)C(=O)N[C@H](C(=O)N[C@@H](CCC(=O)O)C(=O)N[C@@H](CO)C(=O)O)[C@@H](C)O)C(C)C)[C@@H](C)CC)C(C)C)[C@@H](C)CC [LL-37, reference compound]								18%	~ 27%	9%	inhibition of VSV-eGP (in words) [1]: higher viral inhibition than DDIP1; Calu3 Cell TC50 [15]: 19.1 µM
RWLRGLLSGLLR-NH2 [DFTavP3]	8 µM	8 µM	2 to 4 µM	4 µM	4 µM	4 to 8 µM	50 µM				

Source: paper PMC9143221 (Pharmaceuticals, 2022)
